The results in this text go back to ChEMBL document CHEMBL5223095, “Structure activity relationship of N-1 substituted 1,5-naphthyrid-2-one analogs of oxabicyclooctane-linked novel bacterial topoisomerase inhibitors as broad-spectrum antibacterial agents (Part-9)” (Bioorg Med Chem Lett, 2022).

Holding throughout (format): functional
The subject of one experiment is Staphylococcus aureus. Put plainly: Antibacterial activity against methicillin-resistant Staphylococcus aureus OITII-971 assessed as bacterial growth inhibition by CLSI protocol agar-based assay.
Another experiment concerns Escherichia coli. The experiment can be described thus: Antibacterial activity against Escherichia coli ATCC 25922 assessed as bacterial growth inhibition by CLSI protocol agar-based assay.
A further experiment concerns Streptococcus pneumoniae. Put plainly: Antibacterial activity against Streptococcus pneumoniae IID553 assessed as bacterial growth inhibition by CLSI protocol agar-based assay.
The test system of a further experiment is Enterococcus faecium. Put plainly: Antibacterial activity against Vanomycin-resistant Enterococcus faecium assessed as bacterial growth inhibition by CLSI protocol agar-based assay.
The subject of the next experiment is Acinetobacter baumannii. The experiment can be described thus: Antibacterial activity against Acinetobacter baumannii IID876 assessed as bacterial growth inhibition by CLSI protocol agar-based assay.
The test system of the next experiment is Pseudomonas aeruginosa. The experiment can be described thus: Antibacterial activity against Pseudomonas aeruginosa PAO1 assessed as bacterial growth inhibition by CLSI protocol agar-based assay.

By MIC is commonly meant the smallest concentration in the dilution series that meets the test's criterion for growth inhibition.

The structures appear in SMILES notation. Values after ≈ are worked out from the molar mass of the structure shown.

Consider `COc1ccc2ncc(F)c(CCC34CCC(NCc5ccc6c(n5)NC(=O)CO6)(CC3)CO4)c2n1`, for which the minimal inhibitory concentration (MIC) in the experiment on Staphylococcus aureus turned out to be 0.016 µg/mL (≈ 0.0324 µM); with Escherichia coli, 1 µg/mL (≈ 2.03 µM).
The corresponding values for `O=C1COc2ccc(CNC34CCC(C[C@]5(O)Cn6c(=O)ccc7ncc(F)c5c76)(CC3)OC4)nc2N1` are 0.25 µg/mL (≈ 0.493 µM) and 4 µg/mL (≈ 7.88 µM).
The corresponding values for `O=c1ccc2ncc(F)c3c2n1C[C@@]3(O)CC12CCC(NCc3cc4c(cn3)OCCO4)(CC1)CO2` are 0.5 µg/mL (≈ 1.01 µM) and 16 µg/mL (≈ 32.4 µM).
For the compound `O=C(O)Cn1c(=O)ccc2ncc(F)c(CCC34CCC(NCc5ccc6c(n5)NC(=O)CO6)(CC3)CO4)c21`, the minimal inhibitory concentration (MIC) was 16 µg/mL (≈ 29.8 µM) in the experiment on Staphylococcus aureus; 64 µg/mL (≈ 119 µM) in the experiment on Streptococcus pneumoniae; above 64 µg/mL in the experiment on Enterococcus faecium; above 64 µg/mL in the experiment on Escherichia coli; above 64 µg/mL in the experiment on Acinetobacter baumannii; above 64 µg/mL in the experiment on Pseudomonas aeruginosa.
With `CCOC(=O)Cn1c(=O)ccc2ncc(F)c(CCC34CCC(NCc5ccc6c(n5)NC(=O)CO6)(CC3)CO4)c21`, the MIC in the experiment on Staphylococcus aureus was 0.063 µg/mL (≈ 0.111 µM); in the experiment on Streptococcus pneumoniae, 1 µg/mL (≈ 1.77 µM); in the experiment on Enterococcus faecium, 8 µg/mL (≈ 14.1 µM); in the experiment with Escherichia coli, 8 µg/mL (≈ 14.1 µM); in the experiment with Acinetobacter baumannii, 1 µg/mL (≈ 1.77 µM); in the experiment with Pseudomonas aeruginosa, 32 µg/mL (≈ 56.6 µM).
On to `CC(C)(O)Cn1c(=O)ccc2ncc(F)c(CCC34CCC(NCc5ccc6c(n5)NC(=O)CO6)(CC3)CO4)c21`, for which the MIC is 8 µg/mL (≈ 14.5 µM) in the experiment on Staphylococcus aureus; 64 µg/mL (≈ 116 µM) with Streptococcus pneumoniae; above 64 µg/mL with Enterococcus faecium; above 64 µg/mL in the experiment with Escherichia coli; 64 µg/mL (≈ 116 µM) in the experiment on Acinetobacter baumannii; above 64 µg/mL in the experiment with Pseudomonas aeruginosa.
With `O=C1COc2ccc(CNC34CCC(CCc5c(F)cnc6ccc(=O)n(CCO)c56)(CC3)OC4)nc2N1`, the MIC turned out to be 0.063 µg/mL (≈ 0.12 µM) in the experiment on Staphylococcus aureus; 0.5 µg/mL (≈ 0.955 µM) in the experiment on Streptococcus pneumoniae; 2 µg/mL (≈ 3.82 µM) in the experiment on Enterococcus faecium; 2 µg/mL (≈ 3.82 µM) in the experiment on Escherichia coli; 0.5 µg/mL (≈ 0.955 µM) in the experiment on Acinetobacter baumannii; 8 µg/mL (≈ 15.3 µM) with Pseudomonas aeruginosa.
For `CN(C)CCn1c(=O)ccc2ncc(F)c(CCC34CCC(NCc5ccc6c(n5)NC(=O)CO6)(CC3)CO4)c21`, the MIC with Staphylococcus aureus stood at 0.5 µg/mL (≈ 0.908 µM); with Streptococcus pneumoniae, 1 µg/mL (≈ 1.82 µM); in the experiment on Enterococcus faecium it was 16 µg/mL (≈ 29.1 µM); in the experiment on Escherichia coli, 1 µg/mL (≈ 1.82 µM); with Acinetobacter baumannii it was 0.5 µg/mL (≈ 0.908 µM); in the experiment with Pseudomonas aeruginosa, 8 µg/mL (≈ 14.5 µM).
`O=C1COc2ccc(CNC34CCC(CCc5c(F)cnc6ccc(=O)n(CCN7CCOCC7)c56)(CC3)OC4)nc2N1`: the MIC with Staphylococcus aureus is 1 µg/mL (≈ 1.69 µM); in the experiment with Streptococcus pneumoniae it was 2 µg/mL (≈ 3.37 µM); with Enterococcus faecium it was 16 µg/mL (≈ 27 µM); in the experiment on Escherichia coli, above 16 µg/mL; in the experiment with Acinetobacter baumannii, 8 µg/mL (≈ 13.5 µM); with Pseudomonas aeruginosa, above 16 µg/mL.
As for `N#CCn1c(=O)ccc2ncc(F)c(CCC34CCC(NCc5ccc6c(n5)NC(=O)CO6)(CC3)CO4)c21`, the MIC in the experiment with Staphylococcus aureus amounted to 0.016 µg/mL (≈ 0.0309 µM); in the experiment on Streptococcus pneumoniae, 0.25 µg/mL (≈ 0.482 µM); in the experiment on Enterococcus faecium, 2 µg/mL (≈ 3.86 µM); in the experiment on Escherichia coli, 1 µg/mL (≈ 1.93 µM); in the experiment with Acinetobacter baumannii, 0.25 µg/mL (≈ 0.482 µM); in the experiment with Pseudomonas aeruginosa, 4 µg/mL (≈ 7.71 µM).
`O=C1COc2ccc(CNC34CCC(CCc5ccnc6ccc(=O)n(CCO)c56)(CC3)OC4)nc2N1`: the minimal inhibitory concentration (MIC) with Staphylococcus aureus was 2 µg/mL (≈ 3.96 µM); with Streptococcus pneumoniae it was 4 µg/mL (≈ 7.91 µM); with Enterococcus faecium, 16 µg/mL (≈ 31.6 µM); with Escherichia coli, 8 µg/mL (≈ 15.8 µM); in the experiment with Acinetobacter baumannii it was 8 µg/mL (≈ 15.8 µM); in the experiment with Pseudomonas aeruginosa, 32 µg/mL (≈ 63.3 µM).
In the case of `NCCn1c(=O)ccc2ncc(F)c(CCC34CCC(NCc5ccc6c(n5)NC(=O)CO6)(CC3)CO4)c21`, the minimum inhibitory concentration (MIC) with Staphylococcus aureus came out at 1 µg/mL (≈ 1.91 µM); in the experiment on Streptococcus pneumoniae, 1 µg/mL (≈ 1.91 µM); with Enterococcus faecium it was 8 µg/mL (≈ 15.3 µM); in the experiment on Escherichia coli, 1 µg/mL (≈ 1.91 µM); in the experiment with Acinetobacter baumannii, 16 µg/mL (≈ 30.6 µM); in the experiment on Pseudomonas aeruginosa, 2 µg/mL (≈ 3.83 µM).
Take `N#Cc1cnc2ccc(=O)n(CCO)c2c1CCC12CCC(NCc3ccc4c(n3)NC(=O)CO4)(CC1)CO2`: the minimal inhibitory concentration (MIC) in the experiment with Staphylococcus aureus was determined as 0.125 µg/mL (≈ 0.236 µM); in the experiment on Streptococcus pneumoniae, 1 µg/mL (≈ 1.88 µM); in the experiment with Enterococcus faecium, 4 µg/mL (≈ 7.54 µM); in the experiment with Escherichia coli, 4 µg/mL (≈ 7.54 µM); in the experiment on Acinetobacter baumannii, 1 µg/mL (≈ 1.88 µM); in the experiment on Pseudomonas aeruginosa it was 16 µg/mL (≈ 30.2 µM).
For `O=c1ccc2ncc(=O)n3c2n1C[C@H]3CN1CCC(NCc2cc3c(cn2)OCCC3)CC1` [GEPOTIDACIN], the results for the minimum inhibitory concentration (MIC) in the experiment on Staphylococcus aureus and in the experiment on Escherichia coli were 0.25 µg/mL (≈ 0.557 µM) and 2 µg/mL (≈ 4.46 µM), respectively.
